Reference: patent US20220331374A1, “NOVEL SKIN CARE COMPOSITION” (BEIERSDORF AG, priority 2019, published 2022)

Key:
[1] = test system: C. acnes strain K8; experiment: Minimum inhibitory concentration (MIC) of cosmetic excipients, strain K8; assay type: cell-based, Cutibacterium acnes; conditions: % w/vol, incubated anaerobically for 3 days at 37° C., scored visually for growth
Procedure: (§1) In microbiology, the MIC is the lowest concentration of a chemical which prevents visible growth of bacterium. The resulted MIC value depends both on the microorganism and the test compound. The MIC is determined by preparing concentrations series of the test compound in vitro, incubating the solutions with the separate batches of cultured bacteria, and measuring the results using agar dilution or broth microdilution. For the experiments with C. acnes strains C3 and K8, media comprising yeast extract soy peptone and dextrose were used. The MIC is determined by turbidity.
(§2) A total of 125 cosmetic excipients were tested for their compatibility with C. acnes strains C3 and K8. Hydrophilic compounds were tested in a 96-well plate liquid broth format, poorly soluble compounds were pre-dissolved in DMSO before dilution in liquid broth and hydrophobic or solid compounds were tested in an agar well diffusion test assay. The different dilutions of the test excipients in media were prepared in Falcon tubes and then distributed in a deep well plate using a multistepper. Each well received 1.2 ml and was subsequently inoculated with 120 μl of C. acnes bacteria suspension (strain C3 and K8). From the deep well plate 200 μl were transferred in each well of a clear 96 well replicate plate. The leftover was discarded. The plates were then incubated anaerobically for 3 days at 37° C. Following incubation, the test plates were visually examined and wells were scored for growth or complete growth inhibition to define the minimum inhibitory concentration.
(§3) These excipients are listed in the below table with their compatibility values for C. acnes strains C3 and K8. The compatibility values represent the MIC value of the listed ingredients with the tested C. acnes strains. At this concentration [% w/vol] the tested compound starts interfering with the growth of the tested strains. The compounds can be used in formulations at concentrations below this concentration.

[2] = test system: C. acnes strain C3; experiment: Minimum inhibitory concentration (MIC) of cosmetic excipients, strain C3; assay type: cell-based, Cutibacterium acnes; conditions: % w/vol, incubated anaerobically for 3 days at 37° C., scored visually for growth
Procedure: as §1, §2, §3

Compound	COMPATABILITY VALUE K8 [%] [1]	COMPATABILITY VALUE C3 [%] [2]
CCCCCCC(O)CO (centres unmarked) [caprylyl glycol]	0.18%	0.18%
O=C(O)CC(O)(CC(=O)O)C(=O)O [citric acid]	0.08%	0.33%
CCO [ethanol]	3.75%	3.75%
CC(CO)CO [methylpropanediol]	4.00%	4.00%
CC(=O)Oc1c(C)c(C)c2c(c1C)CCC(C)(CCC[C@H](C)CCC[C@H](C)CCCC(C)C)O2 (some centres unmarked) [tocopheryl acetate]	1.00%	1.00%
ethylhexyl cocoate	10.00%	10.00%
tocopherol	1.50%	1.50%
